Data published in the kinase profiling compilation of Christmann-Franck et al. (2016).

Each molecule was assayed against MELK (human) (UniProt Q14680) (assay: radiometric filter-binding kinase assay, Kinase HotSpot). Conditions: compound 0.5 µM; ATP 10 µM.

Compound | residual activity
Nc1nc(Nc2ccc(S(N)(=O)=O)cc2)nn1C(=O)c1c(F)cccc1F | 87.2%
CCCNC(=O)Nc1ccc(Oc2ncnc3cc(OC)c(OC)cc23)cc1Cl | 86.8%
O=C1Nc2cc(Br)ccc2/C1=C1/Nc2ccccc2/C1=N\O | 43.5%

What follows are molecules tested against MERTK (human) (UniProt Q12866) in the same assay as above. Conditions: compound 0.5 µM; ATP 10 µM.
Chain of MERTK (human) (Q12866 whole entry, looked up): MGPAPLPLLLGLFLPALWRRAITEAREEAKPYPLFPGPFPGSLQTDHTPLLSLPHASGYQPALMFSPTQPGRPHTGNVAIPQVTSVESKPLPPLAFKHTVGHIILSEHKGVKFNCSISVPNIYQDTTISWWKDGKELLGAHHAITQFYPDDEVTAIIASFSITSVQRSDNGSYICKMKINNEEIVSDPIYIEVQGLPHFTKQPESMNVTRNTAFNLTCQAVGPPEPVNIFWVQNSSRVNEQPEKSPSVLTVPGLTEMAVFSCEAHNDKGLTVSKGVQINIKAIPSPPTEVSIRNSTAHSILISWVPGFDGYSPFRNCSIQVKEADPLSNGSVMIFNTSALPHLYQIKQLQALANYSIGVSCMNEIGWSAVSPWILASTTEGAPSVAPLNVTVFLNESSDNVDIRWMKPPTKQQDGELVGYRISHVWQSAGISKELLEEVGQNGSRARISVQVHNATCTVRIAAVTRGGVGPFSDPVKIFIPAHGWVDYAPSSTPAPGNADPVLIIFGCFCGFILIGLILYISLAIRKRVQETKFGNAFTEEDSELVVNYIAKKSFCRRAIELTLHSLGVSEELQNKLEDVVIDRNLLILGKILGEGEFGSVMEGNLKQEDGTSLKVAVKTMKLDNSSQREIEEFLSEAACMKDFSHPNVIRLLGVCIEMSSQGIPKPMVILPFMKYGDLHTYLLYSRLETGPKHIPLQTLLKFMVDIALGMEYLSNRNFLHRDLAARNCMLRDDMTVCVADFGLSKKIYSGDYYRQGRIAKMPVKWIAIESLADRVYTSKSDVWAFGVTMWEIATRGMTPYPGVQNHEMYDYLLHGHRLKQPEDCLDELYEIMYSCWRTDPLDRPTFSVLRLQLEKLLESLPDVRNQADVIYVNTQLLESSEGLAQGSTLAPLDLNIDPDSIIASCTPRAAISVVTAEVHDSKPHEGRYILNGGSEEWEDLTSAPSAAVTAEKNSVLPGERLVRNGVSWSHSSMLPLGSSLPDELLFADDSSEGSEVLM

Compound | residual activity
CCN1/C(=C/C(C)=O)Sc2ccc(OC)cc21 | 88.6%
Nc1nc(Nc2ccc(S(N)(=O)=O)cc2)nn1C(=O)c1c(F)cccc1F | 70.2%
CCCNC(=O)Nc1ccc(Oc2ncnc3cc(OC)c(OC)cc23)cc1Cl | 67.7%
O=C1Nc2cc(Br)ccc2/C1=C1/Nc2ccccc2/C1=N\O | 79.4%

Each molecule was assayed against NEK1 (human) (UniProt Q96PY6) in the same assay as above. Conditions: compound 0.5 µM; ATP 10 µM.

Compound | residual activity
CCN1/C(=C/C(C)=O)Sc2ccc(OC)cc21 | 90.1%
Nc1nc(Nc2ccc(S(N)(=O)=O)cc2)nn1C(=O)c1c(F)cccc1F | 76.3%
CCCNC(=O)Nc1ccc(Oc2ncnc3cc(OC)c(OC)cc23)cc1Cl | 91.8%
O=C1Nc2cc(Br)ccc2/C1=C1/Nc2ccccc2/C1=N\O | 93.8%

What follows are molecules tested against NEK9 (human) (UniProt Q8TD19) in the same assay as above. Conditions: compound 0.5 µM; ATP 10 µM.

Compound | residual activity
CCN1/C(=C/C(C)=O)Sc2ccc(OC)cc21 | 102%
Nc1nc(Nc2ccc(S(N)(=O)=O)cc2)nn1C(=O)c1c(F)cccc1F | 82.2%
CCCNC(=O)Nc1ccc(Oc2ncnc3cc(OC)c(OC)cc23)cc1Cl | 83.3%
O=C1Nc2cc(Br)ccc2/C1=C1/Nc2ccccc2/C1=N\O | 96.3%

What follows are molecules tested against NTRK1 (human) (UniProt P04629) in the same assay as above. Conditions: compound 0.5 µM; ATP 10 µM.

Compound | residual activity
CCN1/C(=C/C(C)=O)Sc2ccc(OC)cc21 | 85.7%
Nc1nc(Nc2ccc(S(N)(=O)=O)cc2)nn1C(=O)c1c(F)cccc1F | 98.8%
CCCNC(=O)Nc1ccc(Oc2ncnc3cc(OC)c(OC)cc23)cc1Cl | 93.2%
O=C1Nc2cc(Br)ccc2/C1=C1/Nc2ccccc2/C1=N\O | 34.5%

Each molecule was assayed against PAK1 (human) (UniProt Q13153) in the same assay as above. Conditions: compound 0.5 µM; ATP 10 µM.

Compound | residual activity
CCN1/C(=C/C(C)=O)Sc2ccc(OC)cc21 | 92.9%
Nc1nc(Nc2ccc(S(N)(=O)=O)cc2)nn1C(=O)c1c(F)cccc1F | 89.5%
CCCNC(=O)Nc1ccc(Oc2ncnc3cc(OC)c(OC)cc23)cc1Cl | 93.8%
O=C1Nc2cc(Br)ccc2/C1=C1/Nc2ccccc2/C1=N\O | 89.8%

Each molecule was assayed against PHKG2 (human) (UniProt P15735) in the same assay as above. Conditions: compound 0.5 µM; ATP 10 µM.
Chain of PHKG2 (human) (P15735 whole entry, looked up): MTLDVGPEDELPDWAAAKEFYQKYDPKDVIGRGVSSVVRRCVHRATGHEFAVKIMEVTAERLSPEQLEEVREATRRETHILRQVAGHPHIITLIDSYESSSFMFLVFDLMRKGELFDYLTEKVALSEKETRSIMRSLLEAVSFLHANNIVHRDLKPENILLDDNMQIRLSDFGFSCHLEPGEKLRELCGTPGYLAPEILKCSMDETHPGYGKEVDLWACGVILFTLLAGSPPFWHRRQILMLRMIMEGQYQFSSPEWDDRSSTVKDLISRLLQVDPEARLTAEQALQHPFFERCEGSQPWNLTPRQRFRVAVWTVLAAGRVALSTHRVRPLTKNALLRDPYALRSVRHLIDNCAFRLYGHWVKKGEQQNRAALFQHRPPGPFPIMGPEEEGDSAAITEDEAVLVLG

Compound | residual activity
CCN1/C(=C/C(C)=O)Sc2ccc(OC)cc21 | 94.6%
Nc1nc(Nc2ccc(S(N)(=O)=O)cc2)nn1C(=O)c1c(F)cccc1F | 102%
CCCNC(=O)Nc1ccc(Oc2ncnc3cc(OC)c(OC)cc23)cc1Cl | 84.1%
O=C1Nc2cc(Br)ccc2/C1=C1/Nc2ccccc2/C1=N\O | 92.5%

Each molecule was assayed against PKN2 (human) (UniProt Q16513) in the same assay as above. Conditions: compound 0.5 µM; ATP 10 µM.

Compound | residual activity
CCN1/C(=C/C(C)=O)Sc2ccc(OC)cc21 | 99.7%
Nc1nc(Nc2ccc(S(N)(=O)=O)cc2)nn1C(=O)c1c(F)cccc1F | 85.6%
CCCNC(=O)Nc1ccc(Oc2ncnc3cc(OC)c(OC)cc23)cc1Cl | 99.2%
O=C1Nc2cc(Br)ccc2/C1=C1/Nc2ccccc2/C1=N\O | 85.6%

These molecules were tested against PRKCZ (human) (UniProt Q05513) in the same assay as above. Conditions: compound 0.5 µM; ATP 10 µM.

Compound | residual activity
CCN1/C(=C/C(C)=O)Sc2ccc(OC)cc21 | 98%
Nc1nc(Nc2ccc(S(N)(=O)=O)cc2)nn1C(=O)c1c(F)cccc1F | 99.9%
CCCNC(=O)Nc1ccc(Oc2ncnc3cc(OC)c(OC)cc23)cc1Cl | 102%
O=C1Nc2cc(Br)ccc2/C1=C1/Nc2ccccc2/C1=N\O | 100%

What follows are molecules tested against PTK2B (human) (UniProt Q14289) in the same assay as above. Conditions: compound 0.5 µM; ATP 10 µM.

Compound | residual activity
CCN1/C(=C/C(C)=O)Sc2ccc(OC)cc21 | 97.8%
Nc1nc(Nc2ccc(S(N)(=O)=O)cc2)nn1C(=O)c1c(F)cccc1F | 79.7%
CCCNC(=O)Nc1ccc(Oc2ncnc3cc(OC)c(OC)cc23)cc1Cl | 88%
O=C1Nc2cc(Br)ccc2/C1=C1/Nc2ccccc2/C1=N\O | 56.7%

Each molecule was assayed against PTK6 (human) (UniProt Q13882) in the same assay as above. Conditions: compound 0.5 µM; ATP 10 µM.
Chain of PTK6 (human) (Q13882 whole entry, looked up): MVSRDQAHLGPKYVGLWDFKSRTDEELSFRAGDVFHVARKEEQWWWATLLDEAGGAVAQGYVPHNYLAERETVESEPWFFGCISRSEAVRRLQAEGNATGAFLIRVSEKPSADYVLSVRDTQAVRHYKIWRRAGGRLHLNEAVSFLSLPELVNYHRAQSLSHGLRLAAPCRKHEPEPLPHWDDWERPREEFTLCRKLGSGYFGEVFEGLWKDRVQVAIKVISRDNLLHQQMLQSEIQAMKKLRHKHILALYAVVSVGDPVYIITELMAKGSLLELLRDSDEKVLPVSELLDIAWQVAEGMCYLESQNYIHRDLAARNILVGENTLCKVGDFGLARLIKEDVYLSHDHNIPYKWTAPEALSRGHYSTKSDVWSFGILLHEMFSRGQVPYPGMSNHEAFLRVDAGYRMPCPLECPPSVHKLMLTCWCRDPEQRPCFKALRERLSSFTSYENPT

Compound | residual activity
CCN1/C(=C/C(C)=O)Sc2ccc(OC)cc21 | 85.3%
Nc1nc(Nc2ccc(S(N)(=O)=O)cc2)nn1C(=O)c1c(F)cccc1F | 83.9%
CCCNC(=O)Nc1ccc(Oc2ncnc3cc(OC)c(OC)cc23)cc1Cl | 48.3%
O=C1Nc2cc(Br)ccc2/C1=C1/Nc2ccccc2/C1=N\O | 89.3%

The molecules below were run against RIPK2 (human) (UniProt O43353) in the same assay as above. Conditions: compound 0.5 µM; ATP 10 µM.

Compound | residual activity
CCN1/C(=C/C(C)=O)Sc2ccc(OC)cc21 | 86.3%
Nc1nc(Nc2ccc(S(N)(=O)=O)cc2)nn1C(=O)c1c(F)cccc1F | 77.8%
CCCNC(=O)Nc1ccc(Oc2ncnc3cc(OC)c(OC)cc23)cc1Cl | 84.8%
O=C1Nc2cc(Br)ccc2/C1=C1/Nc2ccccc2/C1=N\O | 75.2%

The molecules below were run against ROCK1 (human) (UniProt Q13464) in the same assay as above. Conditions: compound 0.5 µM; ATP 10 µM.

Compound | residual activity
CCN1/C(=C/C(C)=O)Sc2ccc(OC)cc21 | 99.3%
Nc1nc(Nc2ccc(S(N)(=O)=O)cc2)nn1C(=O)c1c(F)cccc1F | 42.6%
CCCNC(=O)Nc1ccc(Oc2ncnc3cc(OC)c(OC)cc23)cc1Cl | 99.7%
O=C1Nc2cc(Br)ccc2/C1=C1/Nc2ccccc2/C1=N\O | 99%

These molecules were tested against RPS6KA6 KD1 KD2 (human) (UniProt Q9UK32) in the same assay as above. Conditions: compound 0.5 µM; ATP 10 µM.
Chain of RPS6KA6 KD1 KD2 (human) (Q9UK32 whole entry, looked up): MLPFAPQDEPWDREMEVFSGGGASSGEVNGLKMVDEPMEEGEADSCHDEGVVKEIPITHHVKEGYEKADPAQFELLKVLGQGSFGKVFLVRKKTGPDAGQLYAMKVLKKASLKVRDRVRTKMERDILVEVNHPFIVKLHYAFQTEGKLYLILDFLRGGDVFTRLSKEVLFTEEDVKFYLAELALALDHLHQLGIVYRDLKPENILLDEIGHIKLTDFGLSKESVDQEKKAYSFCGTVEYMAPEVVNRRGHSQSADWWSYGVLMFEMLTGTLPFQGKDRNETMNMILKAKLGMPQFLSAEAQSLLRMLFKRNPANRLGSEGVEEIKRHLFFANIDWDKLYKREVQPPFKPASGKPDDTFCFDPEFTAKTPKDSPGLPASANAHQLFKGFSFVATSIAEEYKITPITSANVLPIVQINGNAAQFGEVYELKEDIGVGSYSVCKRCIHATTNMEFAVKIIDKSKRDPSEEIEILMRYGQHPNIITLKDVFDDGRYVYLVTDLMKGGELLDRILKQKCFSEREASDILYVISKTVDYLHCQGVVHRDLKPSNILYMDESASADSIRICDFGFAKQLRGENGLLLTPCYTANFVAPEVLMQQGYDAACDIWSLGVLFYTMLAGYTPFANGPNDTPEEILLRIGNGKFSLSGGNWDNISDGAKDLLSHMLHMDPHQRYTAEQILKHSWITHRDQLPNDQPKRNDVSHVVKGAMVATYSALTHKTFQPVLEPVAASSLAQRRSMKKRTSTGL

Compound | residual activity
CCN1/C(=C/C(C)=O)Sc2ccc(OC)cc21 | 89%
Nc1nc(Nc2ccc(S(N)(=O)=O)cc2)nn1C(=O)c1c(F)cccc1F | 24.7%
CCCNC(=O)Nc1ccc(Oc2ncnc3cc(OC)c(OC)cc23)cc1Cl | 102%
O=C1Nc2cc(Br)ccc2/C1=C1/Nc2ccccc2/C1=N\O | 43.1%

What follows are molecules tested against SGK3 (human) (UniProt Q96BR1) in the same assay as above. Conditions: compound 0.5 µM; ATP 10 µM.

Compound | residual activity
CCN1/C(=C/C(C)=O)Sc2ccc(OC)cc21 | 93.4%
Nc1nc(Nc2ccc(S(N)(=O)=O)cc2)nn1C(=O)c1c(F)cccc1F | 114%
CCCNC(=O)Nc1ccc(Oc2ncnc3cc(OC)c(OC)cc23)cc1Cl | 95.5%
O=C1Nc2cc(Br)ccc2/C1=C1/Nc2ccccc2/C1=N\O | 97.2%

These molecules were tested against SRMS (human) (UniProt Q9H3Y6) in the same assay as above. Conditions: compound 0.5 µM; ATP 10 µM.
Chain of SRMS (human) (Q9H3Y6 whole entry, looked up): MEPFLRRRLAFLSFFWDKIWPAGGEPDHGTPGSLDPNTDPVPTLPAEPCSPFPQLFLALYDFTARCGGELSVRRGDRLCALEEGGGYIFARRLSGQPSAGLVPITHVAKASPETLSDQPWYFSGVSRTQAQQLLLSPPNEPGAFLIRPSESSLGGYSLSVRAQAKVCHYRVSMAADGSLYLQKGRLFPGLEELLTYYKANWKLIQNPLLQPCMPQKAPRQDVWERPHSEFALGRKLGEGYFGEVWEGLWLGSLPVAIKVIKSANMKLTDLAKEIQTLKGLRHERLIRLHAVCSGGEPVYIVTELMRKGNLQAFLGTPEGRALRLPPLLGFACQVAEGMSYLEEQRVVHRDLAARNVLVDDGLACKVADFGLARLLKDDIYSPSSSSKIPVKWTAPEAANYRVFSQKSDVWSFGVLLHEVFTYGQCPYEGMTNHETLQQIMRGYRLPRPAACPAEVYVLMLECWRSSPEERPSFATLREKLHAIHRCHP

Compound | residual activity
CCN1/C(=C/C(C)=O)Sc2ccc(OC)cc21 | 84.7%
Nc1nc(Nc2ccc(S(N)(=O)=O)cc2)nn1C(=O)c1c(F)cccc1F | 96.5%
CCCNC(=O)Nc1ccc(Oc2ncnc3cc(OC)c(OC)cc23)cc1Cl | 105%
O=C1Nc2cc(Br)ccc2/C1=C1/Nc2ccccc2/C1=N\O | 99.6%

Each molecule was assayed against STK3 (human) (UniProt Q13188) in the same assay as above. Conditions: compound 0.5 µM; ATP 10 µM.
Chain of STK3 (human) (Q13188 whole entry, looked up): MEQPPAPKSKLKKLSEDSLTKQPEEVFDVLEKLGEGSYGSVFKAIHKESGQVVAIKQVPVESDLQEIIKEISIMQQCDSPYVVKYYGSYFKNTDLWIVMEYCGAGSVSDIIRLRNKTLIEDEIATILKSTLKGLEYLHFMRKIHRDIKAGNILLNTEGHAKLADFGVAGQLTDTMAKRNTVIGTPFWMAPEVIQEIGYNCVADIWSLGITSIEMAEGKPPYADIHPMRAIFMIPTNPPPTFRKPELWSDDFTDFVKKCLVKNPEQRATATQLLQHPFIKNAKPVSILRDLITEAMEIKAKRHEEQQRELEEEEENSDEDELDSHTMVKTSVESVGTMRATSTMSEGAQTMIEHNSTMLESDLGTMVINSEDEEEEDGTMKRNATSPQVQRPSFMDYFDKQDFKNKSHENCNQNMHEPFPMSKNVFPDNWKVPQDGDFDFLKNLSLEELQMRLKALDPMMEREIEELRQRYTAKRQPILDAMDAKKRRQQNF

Compound | residual activity
Nc1nc(Nc2ccc(S(N)(=O)=O)cc2)nn1C(=O)c1c(F)cccc1F | 34.3%
CCCNC(=O)Nc1ccc(Oc2ncnc3cc(OC)c(OC)cc23)cc1Cl | 85%
O=C1Nc2cc(Br)ccc2/C1=C1/Nc2ccccc2/C1=N\O | 20.5%

Each molecule was assayed against TEK (human) (UniProt Q02763) in the same assay as above. Conditions: compound 0.5 µM; ATP 10 µM.

Compound | residual activity
CCN1/C(=C/C(C)=O)Sc2ccc(OC)cc21 | 102%
Nc1nc(Nc2ccc(S(N)(=O)=O)cc2)nn1C(=O)c1c(F)cccc1F | 84.2%
CCCNC(=O)Nc1ccc(Oc2ncnc3cc(OC)c(OC)cc23)cc1Cl | 87%
O=C1Nc2cc(Br)ccc2/C1=C1/Nc2ccccc2/C1=N\O | 96.7%

What follows are molecules tested against TGFBR2 (human) (UniProt P37173) in the same assay as above. Conditions: compound 0.5 µM; ATP 10 µM.
Chain of TGFBR2 (human) (P37173 whole entry, looked up): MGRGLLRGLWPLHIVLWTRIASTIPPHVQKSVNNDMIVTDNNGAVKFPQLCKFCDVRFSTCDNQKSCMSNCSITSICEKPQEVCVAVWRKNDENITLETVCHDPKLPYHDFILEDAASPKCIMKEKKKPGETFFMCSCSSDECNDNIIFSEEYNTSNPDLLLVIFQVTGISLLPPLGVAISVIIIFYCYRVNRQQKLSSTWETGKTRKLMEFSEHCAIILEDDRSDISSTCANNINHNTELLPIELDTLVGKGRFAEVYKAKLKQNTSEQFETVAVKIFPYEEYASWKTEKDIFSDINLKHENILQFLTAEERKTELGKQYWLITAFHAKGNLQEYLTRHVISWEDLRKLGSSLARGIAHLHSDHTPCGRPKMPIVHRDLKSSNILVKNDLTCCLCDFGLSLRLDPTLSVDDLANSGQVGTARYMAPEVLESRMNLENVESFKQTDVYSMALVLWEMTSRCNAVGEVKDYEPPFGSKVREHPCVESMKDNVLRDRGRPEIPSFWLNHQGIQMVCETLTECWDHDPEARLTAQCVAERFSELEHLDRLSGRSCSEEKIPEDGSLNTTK

Compound | residual activity
CCN1/C(=C/C(C)=O)Sc2ccc(OC)cc21 | 78.5%
Nc1nc(Nc2ccc(S(N)(=O)=O)cc2)nn1C(=O)c1c(F)cccc1F | 98.5%
CCCNC(=O)Nc1ccc(Oc2ncnc3cc(OC)c(OC)cc23)cc1Cl | 109%
O=C1Nc2cc(Br)ccc2/C1=C1/Nc2ccccc2/C1=N\O | 106%

Each molecule was assayed against TXK (human) (UniProt P42681) in the same assay as above. Conditions: compound 0.5 µM; ATP 10 µM.
Chain of TXK (human) (P42681 whole entry, looked up): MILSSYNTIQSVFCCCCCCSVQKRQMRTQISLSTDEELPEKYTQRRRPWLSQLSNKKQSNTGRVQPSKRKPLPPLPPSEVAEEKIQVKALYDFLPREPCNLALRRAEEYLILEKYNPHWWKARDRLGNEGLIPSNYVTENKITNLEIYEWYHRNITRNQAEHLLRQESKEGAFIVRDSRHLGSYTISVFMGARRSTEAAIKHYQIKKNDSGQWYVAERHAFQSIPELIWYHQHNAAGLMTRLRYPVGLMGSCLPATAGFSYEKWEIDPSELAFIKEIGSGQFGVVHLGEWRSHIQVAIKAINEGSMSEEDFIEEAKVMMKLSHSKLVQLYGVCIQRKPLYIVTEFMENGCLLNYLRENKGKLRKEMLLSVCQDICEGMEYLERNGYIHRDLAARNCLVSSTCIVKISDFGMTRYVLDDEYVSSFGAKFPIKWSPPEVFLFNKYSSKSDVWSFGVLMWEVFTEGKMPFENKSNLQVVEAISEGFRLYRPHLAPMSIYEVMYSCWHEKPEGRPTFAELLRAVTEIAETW

Compound | residual activity
CCN1/C(=C/C(C)=O)Sc2ccc(OC)cc21 | 100%
Nc1nc(Nc2ccc(S(N)(=O)=O)cc2)nn1C(=O)c1c(F)cccc1F | 95.8%
CCCNC(=O)Nc1ccc(Oc2ncnc3cc(OC)c(OC)cc23)cc1Cl | 101%
O=C1Nc2cc(Br)ccc2/C1=C1/Nc2ccccc2/C1=N\O | 27.7%

These molecules were tested against WNK3 (human) (UniProt Q9BYP7) in the same assay as above. Conditions: compound 0.5 µM; ATP 10 µM.

Compound | residual activity
CCN1/C(=C/C(C)=O)Sc2ccc(OC)cc21 | 88.1%
Nc1nc(Nc2ccc(S(N)(=O)=O)cc2)nn1C(=O)c1c(F)cccc1F | 98.3%
CCCNC(=O)Nc1ccc(Oc2ncnc3cc(OC)c(OC)cc23)cc1Cl | 93.8%
O=C1Nc2cc(Br)ccc2/C1=C1/Nc2ccccc2/C1=N\O | 93.8%
